Data from patent publication US20090069623A1, “METHODS AND COMPOSITIONS FOR TREATMENT OR PREVENTION OF RADIATION-INDUCED FIBROSIS” (Virginia Commonwealth University Intellectual Property …, priority 2007, published 2009).

Test system: CTGF, fibronectin (FN), collagen type IV (Col IV) mRNA
Assay: RT-PCR of TGF-β1-induced mRNA expression in HFL-1 cells treated with simvastatin
Type: cell-based, human
Details: 10 ng/ml TGF-β1 for 20 hours, FIG. 7A
Experimental: Cell Culture and Treatment. Normal human fetal lung fibroblasts (HFL-1) were purchased from the American Type Culture Collection (ATCC Number: CCL-153) and cultured in Ham's F12K medium (American Type Culture Collection) supplemented with 2 mM L-glutamine adjusted to contain 1.5 g/L sodium bicarbonate and 10% fetal bovine serum. Cells were maintained in humidified 5% CO2 at 37° C. Human dermal fibroblasts (HDF), derived from the dermis of normal human adult skin, were purchased from Invitrogen, Inc. and cultured in Medium-106 (Invitrogen, Inc., Catalogue No. M-106-500) containing LSGS Kit (Invitrogen, Inc., Catalogue No. […]) prior to use. After reaching 75-80% confluence, the medium was changed to serum free medium (SFM) for irradiation with different dose 1Gy, 2.5Gy, 5Gy, 7.5Gy and 10 Gy by using ^137Se. Alternatively, cells were treated with 5 ng/ml TGF-β1 (Sigma-Aldrich, Inc., Catalogue No. T7039) to stimulate CTGF production. The cells were then kept for 3 days in humidified 5% CO2 at 37° C. and subjected to Western immunoblot.^1 ^1What are the culture conditions (e.g., media) for M12 cells used in FIG. 3? RT-PCR analysis of CTGF, COL-IV, FN and hβ2M. […] The ability of statins to inhibit TGF-β1-mediated induction of CTGF, fibronectin, and collagen type IV was assessed in HFL-1 cells. […]

## CCC(C)(C)C(=O)O[C@H]1C[C@@H](C)C=C2C=C[C@H](C)[C@H](CC[C@@H]3C[C@@H](O)CC(=O)O3)[C@H]21 [simvastatin, 2,2-dimethyl-butanoic acid(1S,3R,7S,8S,8aR)-1,2,3,7,8,8a-hexahydro-3,7-dimethyl-8-[2-[(2R,4R)-tetrahydro-4-hydroxy-6-oxo-2H-pyran-2-yl]ethyl]-1-naphthalenylester]
0.1 μM simvastatin
  CTGF, FN, and Col IV mRNA expression: reduction in CTGF, FN, and Col IV mRNA expression
Increasing concentration of simvastatin
  CTGF, FN, and Col IV mRNA expression: reduction in CTGF, FN, and Col IV mRNA expression became more pronounced
